Laboratory results as given in a melting point compilation (Tetko et al.; mined from patent text by program, amines drawn as free bases though some values may be those of a salt).

Row | melting point [°C] | Compound
1 | 200 to 205 | Cc1ccc2c(c1)C=Cc1cc(C)ccc1C2c1cn(-c2ccnc(N3CCC[C@H]3C(=O)O)n2)c(=O)[nH]c1=O
2 | 104 to 106 | CC(C)(C)OC(=O)NCC1(C(=O)O)CC1
3 | 105 to 106 | C[C@@H](NS(=O)(=O)c1cccs1)c1cccc(C(=O)c2ccco2)c1
4 | 248 to 249 | Cc1ccc2nc(N3CC[C@@H](O)C3)ccc2c1NC(=O)CC1CCCCC1
5 | 101 to 102 | OCCC1CCc2cc(OCc3ccc(-c4ccccc4)cc3)ccc2C1 (stereo not given)
6 | 192 to 193 | COc1ncc(C2Nc3ccccc3C(=O)N2c2cccc(C(F)(F)F)c2)cc1Br (stereo not given)
7 | 88.5 to 89 | COc1ccc(NC(C)=S)cc1C
8 | 128 to 131 | CC(=O)OCCn1c(=O)oc(=O)c2ccccc21
9 | 183 to 186 | O=C1CCCc2c1ccc(O)c2Br
10 | 77 to 80 | COC(=O)CC(O)CCSc1cc(C(C)(C)C)c(O)c(C(C)(C)C)c1 (stereo not given)
11 | 55 to 57 | O=C(NCc1ccccc1)c1ccnc(NC(=O)C2CCCC2)c1
12 | 169 to 170 | CCC1(CCCCN2CCN(c3cccc4c3OCCO4)CC2)C(=O)Nc2ccccc21 (stereo not given)
13 | 60 to 62 | CCCCCCCCCCCCCCCCCC(=O)NCC(C)(C)COC(=O)CCCCCCCCCCCCCCCCC
14 | 197 to 199 | CCc1nccn1-c1nc(-c2ccc(Cl)cc2)c(CCC(=O)O)o1
15 | 201 to 202 | COc1ccc(OC)c2c(=O)c3ccccc3sc12
16 | 133 | Cc1cc(Oc2cc(C(F)(F)F)nn2C)nc(C(=O)Nc2ccc(F)cc2)c1
17 | 151 to 153 | COc1ccc(Cl)cc1N1CCN(CCCNC(=O)c2cccc3c(=O)c(C)c(C(=O)N(C)C)oc23)CC1
18 | 108 to 109 | C=CC(=O)OCCOC(=O)Cc1cc(O)n2ncnc2n1
19 | 195 to 197 | Nc1ncccc1-c1nc2cc(Br)cnc2n1-c1ccc(CNC(=O)c2ccccc2)cc1
20 | 185 to 187 | COc1ccc2c(c1OC)CCC1CNC(=O)C21 (stereo not given)
21 | 169 to 171 | Nc1nc2ccccc2c2c1nc(CF)n2CC1(O)CCOC1 (stereo not given)
22 | 110 to 112 | COc1ccc(C(=O)Cc2c(Cl)cncc2Cl)c2c1OC1(CCCC1)O2
23 | 113 to 114 | Cc1ccc(C2CC(=O)c3c(C)coc3C2)cc1 (stereo not given)
24 | 40 to 41 | COc1ccc(C2(O)OC(=O)C(c3ccc4nsnc4c3)=C2Cc2cc(OC)c(OC3CCCC3)c(OC)c2)cc1 (stereo not given)
25 | 114 | COc1cccc(-c2nc(Cl)nc(Cl)n2)c1

Row | melting point [°C] | Compound
26 | 147 to 148 | CC(C)(C)c1csc(-c2cc3cc(CCc4ccccc4C(=O)O)ccc3o2)n1
27 | 108 to 109 | Cc1cccc2c1C(=O)C([N+](=O)[O-])C2=O (stereo not given)
28 | 58 to 59 | CC(C)(C)OC(=O)NOCCC(=O)Oc1c(F)c(F)c(F)c(F)c1F
29 | 162 | CON(C)C(=O)c1cc2c3c(c1)c(-c1cccc(Cl)c1)cc(=O)n3CC2
30 | 94 to 95 | CCOc1ccc(-c2nc(C=Cc3ccccc3)cs2)cc1OCC
31 | 48 to 53 | NCCCCCCCCO
32 | 143 to 144 | CCCCOC(=O)NCCc1nc(-c2ccc(-c3ccccc3)cc2)c(C)[nH]1
33 | 220 to 221 | O=C(O)CCC(=O)Nc1cc(C(=O)O)cc([N+](=O)[O-])c1
34 | 135 to 137 | O=C1C=CN2c3ccccc3CCC2C1 (stereo not given)
35 | 102 to 104 | CCOC(=O)c1c[nH]nc1NCc1ccc(OC)c(OC2CCCC2)c1
36 | 181 to 182 | CCc1ccc(-c2ccc3c(c2)C=C(C(=O)Nc2ccc(CN(C)C4CCOCC4)cc2)CCO3)cc1
37 | 153 to 156 | CCCNc1nc(C#N)c(C#N)nc1SCc1ccccc1
38 | 138 to 140 | CCCOc1nc(N)c2ncn(C3CCCCO3)c2n1 (stereo not given)
39 | 168 to 173 | COC(=O)C1=CC=Nc2ccccc2C1
40 | 47 to 49 | Cn1nc(-c2c(F)cccc2Cl)nc1-c1ccc(COc2ncc(C(F)(F)F)cc2Cl)c(Cl)c1
41 | 219 | CCCc1c2nc(C(=O)OC)cc(NS(=O)(=O)c3ccc(C)cc3)c2cc2c(=O)cc(C(=O)OCC)oc12
42 | 85 to 87.5 | O=C(OCc1cc(OCCCBr)cc(OCCCBr)c1)c1ccccc1
43 | 114 to 115 | CCOC(=O)C1=C(C#N)NC(C)=C(C(=O)OCCOCc2ccccc2)C1c1cccc([N+](=O)[O-])c1 (stereo not given)
44 | 114 to 116 | CC1COc2c(N3CCC(NC(=O)OC(C)(C)C)C3)c(F)cc3c(=O)n(N)c(=O)n1c23 (stereo not given)
45 | 110 to 111 | COCC1CN(c2ccc3c(c2)CCC(CCC(F)(F)F)O3)C(=O)O1 (stereo not given)
46 | 148 to 149 | CC(=O)N1CCN(c2ccn3nc(-c4ccccc4)c(-c4ccc(=O)n(C(C)C)n4)c3c2)CC1
47 | 160 to 166 | O=C1C(c2cccc(O)c2)CCCCN1Cc1ccccc1 (stereo not given)
48 | 130 to 132 | COc1cc(C(=O)N2CCN(C(=O)/C=C(\c3ccc(F)cc3)c3cc(OC)c(OC)c(OC)c3)CC2)cc(OC)c1OC
49 | 216 to 217 | O=C(NC(Cc1ccccc1F)C(=O)N1CCSC1)c1cc2cc(Cl)ccc2[nH]1 (stereo not given)
50 | 157 to 161 | CC(C)(C)C(=O)C(C(c1ccc(Cl)cc1)n1cncn1)n1cncn1 (stereo not given)

Row | melting point [°C] | Compound
51 | 118 to 120 | COc1cc2cc(CO)nc(-c3cccc(Cl)c3)c2cc1OC
52 | 118 to 120 | CCC(C)(N=NC(C)(CC)NC(=O)Nc1ccccc1)NC(=O)Nc1ccccc1 (stereo not given)
53 | 151 to 152 | CCCC(OC)c1ccc(Cl)c2nc3n(c12)CCCN3c1c(C)cc(Cl)cc1Cl (stereo not given)
54 | 132 to 134 | CCC(=O)ON=C(c1ccccc1)c1cc(C(C)(C)C)c(O)c(C(C)(C)C)c1
55 | 198 to 202 | O=c1cc(-c2ccccc2SCc2ccccc2)[nH]c2ccc(Cl)cc12
56 | 205 to 206 | COc1ccc(-c2cc(-c3nccs3)c(=O)n(C)c2-c2ccc(C)o2)cc1
57 | 181 to 182 | COc1cc2c(Nc3ccc(Cl)cc3F)ncnc2cc1OCCN1CCSCC1
58 | 89 | O=P(CN=Cc1ccccc1Cl)(c1ccccc1)c1ccccc1
59 | 85 | O=C(O)CCc1ccc(CNC(=O)C2Cc3ccccc3N2S(=O)(=O)c2ccc(-c3cccc(C(F)(F)F)c3)cc2)cc1 (stereo not given)
60 | 164 to 166 | CCNc1nnc2ccc(-c3cccc(N(CC)C(=O)CC)c3)nn12
61 | 115 to 117 | COc1ccc(-c2nc(Sc3ccc(C)cc3)n(Cc3ccccc3)c2-c2ccc(OC)cc2)cc1
62 | 123 | O=C(Cc1ccc(Br)cc1)c1ccc(Cl)cc1
63 | 176 to 177 | CCOC(=O)c1cc(NCc2ccccc2)c(NC2CCCCC2)c(S(N)(=O)=O)c1
64 | 174 to 175 | CS(=O)(=O)Nc1ccc([N+](=O)[O-])cc1C=C1CCCCC1
65 | 161 | COc1c(C)cc2[nH]c(S(=O)Cc3nccc(C)c3C)nc2c1C (stereo not given)
66 | 151 to 153 | Cc1c(NC(=O)c2ccc(-c3ccccc3)cc2F)ccc2cc(CN3CCCCCC3)cnc12
67 | 214 to 216 | CS(=O)(=O)c1nc2ccccn2c1S(N)(=O)=O
68 | 48 to 51 | COC(=O)C1=C(C)NC(C)=C(C(=O)OCCCC#N)C1c1ccccc1[N+](=O)[O-] (stereo not given)
69 | 185 to 186 | CCCN(CCC)[C@H]1Cc2c[nH]c3ccc(-c4cccnc4)c(c23)C1
70 | 58 to 59.5 | COc1c(CC#N)cccc1CC#N
71 | 126 to 128 | O=C1CCc2cc3ccccc3n2C1
72 | 208 to 210 | CCOc1nc2c(C)sc(C(=O)OC)c2n1Cc1ccc(-c2ccccc2)c(-c2nc(=O)o[nH]2)c1
73 | 146 | CN1C(=O)C(C)(Cc2ccccc2)N(C)C(=O)C1=Cc1cccnc1Cl (stereo not given)
74 | 196 to 197 | Nc1nc(-c2ccccc2)c(-c2ccnc(Nc3ccccc3)n2)s1
75 | 300 | CN(C)C=Nc1nc(Cl)c2[nH]cnc2n1

Row | melting point [°C] | Compound
76 | 157 to 158 | O=C(O)C(=O)c1c(F)cc(OCCOc2ccc3ccccc3c2)cc1F
77 | 211 to 212 | CC(C)(C)OC(=O)CN1C(=O)C(N2C(=O)c3ccccc3C2=O)CSCC1c1cccs1 (stereo not given)
78 | 86 to 87 | CC1COc2ccccc2O1 (stereo not given)
79 | 238 to 240 | COC(=O)c1cc2c(O)c(C(=O)NCc3ccc(Cl)cc3)cnc2s1
80 | 239 to 240 | COc1cc(OC)c2c(C)cc(=O)[nH]c2c1
81 | 97 to 99 | COC(=O)CCn1ccc2cc([N+](=O)[O-])ccc21
82 | 226 | Nc1ccc(C2=NNC(=O)CC2)cc1N
83 | 230 to 232 | COc1ccc(-c2c3ccccc3cc3sc4ccccc4c23)cc1C#N
84 | 63 to 64 | COc1cc(O)c(C=O)cc1Br
85 | 94 to 95 | O=C/C=C/c1cccc(Cl)c1Cl
86 | 125 to 128 | Cc1ccc(S(=O)(=O)NC(=O)n2sc(Cl)cc2=O)cc1
87 | 216 to 219 | COc1ccccc1NC(=O)Nc1nc(Nc2ccccc2-c2ccccc2)nc(N(CCC(=O)O)Cc2ccccc2C(F)(F)F)n1
88 | 146 to 148 | CCCCCCCNC(=O)Nc1ccccc1C(=O)NCC1CCN(C(c2ccccc2)c2ccccc2)CC1
89 | 117 to 120 | CC(C)(C=NO)n1ccnc1
90 | 123 to 126 | CCCc1ccc(Cc2cccc(NC(N)=O)c2)n1CCC
91 | 117 to 118 | C[C@@H](n1ccn(-c2ccc(OC(F)(F)C(F)F)cc2)c1=O)[C@@]1(c2ccc(F)cc2F)CO1
92 | 91 to 92 | C#CCN(Cc1ccccc1)S(=O)(=O)c1ccc([N+](=O)[O-])cc1[N+](=O)[O-]
93 | 105 | CC(CN1C(C)CCC1C)N1c2ccccc2Sc2ccc(C#N)cc21 (mixture of isomers)
94 | 115 to 117 | CNc1cc(Oc2nn(C)c(C(F)(F)F)c2Cl)ccc1C#N
95 | 98 to 100 | CCOC(=O)c1cnc(-c2ccccc2)nc1Nc1ccccc1
96 | 130 to 133 | CCOC(=O)COc1cccc(C(=O)Nc2ccccc2Sc2ccccc2-c2nnn[nH]2)c1
97 | 140 to 143 | CN(CCc1ccccc1)C(=O)Cn1cc(C=C(C(=O)O)C(C)(C)C)c2cc([N+](=O)[O-])ccc21
98 | 110 to 111 | CC(C)(O)CCCCCc1ccc(CCc2ccc(O)c(CO)c2)cc1

Row | Compound | melting point [°C]
99 | C#CC(CC)(CC)NC(N)=O | 108
100 | Cc1nnc2n1-c1sccc1C(c1ccccc1Cl)=NC2 | 221 to 223
